The text below walks through data of patent publication US9115092B2, “Substituted quinazoline and pyrido-pyrimidine derivatives” (Asana Biosciences, LLC, priority 2010, dated 2015).

A value given as a limit tells only on which side of the number the result lay.

The target of test [1] is T1, PI3Kα (wild-type), P110/P85α (Homo sapiens, UniProt P42336).
T1 construct: made in house; host or cells: SF9 insect cells
Put plainly: PI3 Kinase TR-FRET assay, PI3Kα (wild-type). In kind it is biochemical. In short, it runs like this:
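TR-FRET read-out of PIP3 formation via biotin-PIP3 displacement (665/615 nm ratio) gave IC50 curves. Enzyme: 5 ng wild-type P110/P85α from Sf9 cells, 60 min RT with compound and PIP2 (MgCl2 40 mM, DTT 5 mM), then 30 min RT kinase reaction at 10 μM ATP and 10 μM PIP2.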

A further test addresses T2, mTOR kinase (Homo sapiens, UniProt P42345).
T2 construct: purchased Millipore, USA
The test is described as follows: mTOR kinase TR-FRET assay. Type of test: biochemical. The conditions noted are these: read-out: mTO R. In short, it runs like this: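 TR-FRET read-out (340 nm excitation, 615/665 nm emission) of Thr389 phosphorylation of a ULight-labeled p70 S6K peptide (50 nM) by mTOR, 20 μM ATP, 60 min room temperature after 60 min compound preincubation. Buffer HEPES pH 7.5 with MnCl2, EGTA; IC50 by sigmoidal dose-response.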

T1 sequence (P42336 whole entry): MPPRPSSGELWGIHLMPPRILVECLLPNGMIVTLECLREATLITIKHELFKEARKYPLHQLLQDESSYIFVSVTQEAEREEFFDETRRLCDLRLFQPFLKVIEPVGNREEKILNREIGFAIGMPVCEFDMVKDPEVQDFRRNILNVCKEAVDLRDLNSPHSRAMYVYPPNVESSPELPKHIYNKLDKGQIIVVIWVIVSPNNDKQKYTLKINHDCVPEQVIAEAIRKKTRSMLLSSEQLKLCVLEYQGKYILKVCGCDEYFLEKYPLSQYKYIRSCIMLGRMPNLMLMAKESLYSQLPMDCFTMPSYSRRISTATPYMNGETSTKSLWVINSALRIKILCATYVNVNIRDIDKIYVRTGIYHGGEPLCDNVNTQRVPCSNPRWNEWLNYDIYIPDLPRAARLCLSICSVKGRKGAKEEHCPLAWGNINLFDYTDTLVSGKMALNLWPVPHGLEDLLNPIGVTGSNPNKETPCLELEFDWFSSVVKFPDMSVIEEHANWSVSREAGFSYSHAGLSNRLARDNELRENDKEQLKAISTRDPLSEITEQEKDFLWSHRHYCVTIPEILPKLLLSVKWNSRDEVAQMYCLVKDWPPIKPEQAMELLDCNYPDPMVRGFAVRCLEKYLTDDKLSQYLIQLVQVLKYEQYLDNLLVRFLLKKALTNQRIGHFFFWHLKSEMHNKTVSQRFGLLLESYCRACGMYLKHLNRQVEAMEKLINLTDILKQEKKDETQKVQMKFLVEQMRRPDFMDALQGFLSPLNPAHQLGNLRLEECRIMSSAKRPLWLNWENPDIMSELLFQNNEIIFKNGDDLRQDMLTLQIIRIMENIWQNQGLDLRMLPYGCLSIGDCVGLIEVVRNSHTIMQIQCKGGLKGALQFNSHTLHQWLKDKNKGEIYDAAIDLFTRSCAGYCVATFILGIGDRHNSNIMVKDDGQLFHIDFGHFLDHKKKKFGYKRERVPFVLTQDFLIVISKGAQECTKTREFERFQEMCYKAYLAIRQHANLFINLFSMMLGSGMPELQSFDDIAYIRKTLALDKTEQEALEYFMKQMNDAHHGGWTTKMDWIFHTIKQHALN
T1 sequence (P27986 whole entry partner): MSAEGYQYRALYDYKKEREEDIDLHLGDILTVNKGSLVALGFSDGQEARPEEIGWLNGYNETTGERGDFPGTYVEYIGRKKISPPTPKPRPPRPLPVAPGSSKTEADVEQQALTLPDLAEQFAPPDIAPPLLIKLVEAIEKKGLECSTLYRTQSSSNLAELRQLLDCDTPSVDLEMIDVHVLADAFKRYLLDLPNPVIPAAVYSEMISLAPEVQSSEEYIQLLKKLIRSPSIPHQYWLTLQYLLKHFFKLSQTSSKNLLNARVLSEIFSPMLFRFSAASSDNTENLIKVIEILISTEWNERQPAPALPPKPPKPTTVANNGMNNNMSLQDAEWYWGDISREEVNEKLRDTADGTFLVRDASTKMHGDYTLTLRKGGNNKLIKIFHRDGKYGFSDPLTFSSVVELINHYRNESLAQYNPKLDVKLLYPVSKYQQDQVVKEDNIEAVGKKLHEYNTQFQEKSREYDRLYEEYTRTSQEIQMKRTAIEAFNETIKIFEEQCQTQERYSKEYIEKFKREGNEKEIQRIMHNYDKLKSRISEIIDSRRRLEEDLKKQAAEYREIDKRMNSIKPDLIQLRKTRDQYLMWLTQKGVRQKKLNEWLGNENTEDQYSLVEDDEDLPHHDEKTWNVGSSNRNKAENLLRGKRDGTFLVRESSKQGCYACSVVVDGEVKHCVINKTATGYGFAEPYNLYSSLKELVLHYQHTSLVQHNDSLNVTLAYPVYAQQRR

For `CN(C)C(=O)c1ccc(NC(=O)Nc2ccc(-c3nc(N4CCOCC4)c4ccc(-c5ccc(N)nc5)cc4n3)cc2)cc1` [Example 177, 4-(3-(4-(7-(6-aminopyridin-3-yl)-4-morpholino-quinazolin-2-yl)phenyl)ureido)-N,N-dimethyl-benzamide], the IC50 (in test [1]; on mTOR kinase) was < 0.05 µM in each case.

Consider `CN(C)C(=O)c1ccc(NC(=O)Nc2ccc(-c3nc(N4CCOCC4)c4ccc(-c5cncnc5)cc4n3)cn2)c(F)c1` [Example 140, 3-fluoro-N,N-dimethyl-4-(3-(5-(4-morpholino-7-(pyrimidin-5-yl)quinazolin-2-yl)pyridin-2-yl)ureido)-benzamide], for which the values for the IC50 (in test [1]; at mTOR kinase) were < 0.05 µM and 0.201 to 10 µM, respectively.

Regarding `CN(C)C(=O)c1ccc(NC(=O)Nc2ccc(-c3nc(N4CCOCC4)c4ncc(-c5cccnc5)cc4n3)c(F)c2)cc1` [Example 261, 4-(3-(3-fluoro-4-(4-morpholino-7-(pyridin-3-yl)pyrido[3,2-d]pyrimidin-2-yl)phenyl)ureido)-N,N-dimethyl-benzamide], the IC50 (in test [1]; on mTOR kinase) was < 0.05 µM throughout.

For the compound `CN1CCN(C(=O)c2ccc(NC(=O)Nc3ccc(-c4nc(N5CCOCC5)c5ccc(-c6ccncc6)cc5n4)cc3F)cc2)CC1` [Example 212, 1-(2-fluoro-4-(4-morpholino-7-(pyridin-4-yl)quinazolin-2-yl)phenyl)-3-(4-(4-methylpiperazine-1-carbonyl)phenyl)urea], the IC50 (in test [1]; at mTOR kinase) was 0.05 to 0.2 µM each time.

Take `COc1ncc(-c2ccc3c(N4CCOCC4)nc(-c4ccc(NC(=O)Nc5ccc(C(=O)N(C)C)cc5)nc4)nc3c2)cn1` [Example 119, 4-(3-(5-(7-(2-methoxypyrimidin-5-yl)-4-morpholino-quinazolin-2-yl)pyridin-2-yl)ureido)-N,N-dimethyl-benzamide]: the IC50 in test [1] is < 0.05 µM; on mTOR kinase it was 0.201 to 10 µM.

As for `CN(C)C(=O)c1ccc(NC(=O)Nc2ccc(-c3nc(N4CCOCC4)c4ncc(-c5cccnc5)cc4n3)cc2)cc1F` [Example 264, 2-fluoro-N,N-dimethyl-4-(3-(4-(4-morpholino-7-(pyridin-3-yl)pyrido[3,2-d]pyrimidin-2-yl)phenyl)ureido)-benzamide], the IC50 (in test [1]; at mTOR kinase) was < 0.05 µM in each case.

For `CN(C)C(=O)c1ccc(NC(=O)Nc2ccc(-c3nc(N4CCOCC4)c4ccc(-c5ccc(N)nc5)cc4n3)cc2)c(F)c1` [Example 178, 4-(3-(4-(7-(6-aminopyridin-3-yl)-4-morpholino-quinazolin-2-yl)phenyl)ureido)-3-fluoro-N,N-dimethyl-benzamide], the IC50 was 0.05 to 0.2 µM in test [1] and < 0.05 µM on mTOR kinase.

As to `CN(C)C(=O)c1ccc(NC(=O)Nc2ccc(-c3nc(N4CCOCC4)c4ccc(-c5cncnc5)cc4n3)c(F)c2)cn1` [Example 251, 5-(3-(3-fluoro-4-(4-morpholino-7-(pyrimidin-5-yl)quinazolin-2-yl)phenyl)ureido)-N,N-dimethylpicolinamide], the IC50 in test [1] was 0.201 to 10 µM; at mTOR kinase, < 0.05 µM.

With `Cc1nn(C)c(C)c1-c1ccc2c(N3CCOCC3)nc(-c3ccc(NC(=O)Nc4ccc(C(=O)N(C)C)cc4)cc3)nc2c1` [Example 162, N,N-dimethyl-4-(3-(4-(4-morpholino-7-(1,3,5-trimethyl-1H-pyrazol-4-yl)quinazolin-2-yl)phenyl)ureido)-benzamide], the IC50 (in test [1]; at mTOR kinase) was < 0.05 µM each time.

For `Cc1ccc(-c2cccc3c(N4CCOCC4)nc(-c4ccc(NC(=O)Nc5ccc(C(=O)N(C)C)cc5)cc4)nc23)o1` [Example 71, N,N-dimethyl-4-(3-{4-[8-(5-methyl-furan-2-yl)-4-morpholin-4-yl-quinazolin-2-yl]-phenyl}-ureido)-benzamide], the figures for the IC50 (in test [1]; on mTOR kinase) were 0.05 to 0.2 µM and < 0.05 µM, respectively.

For the compound `CN(C)C(=O)c1ccc(NC(=O)Nc2ccc(-c3nc(N4CCOCC4)c4ncc(-c5cnn(C)c5)cc4n3)cc2)cc1F` [Example 273, 2-fluoro-N,N-dimethyl-4-(3-(4-(7-(1-methyl-1H-pyrazol-4-yl)-4-morpholino-pyrido[3,2-d]pyrimidin-2-yl)phenyl)ureido)-benzamide], the IC50 (in test [1]; on mTOR kinase) was < 0.05 µM throughout.

In the case of `CN(C)C(=O)c1ccc(NC(=O)Nc2ccc(-c3nc(N4CCOCC4)c4ccc(-c5ccc(CO)o5)cc4n3)cc2)c(F)c1` [Example 219, 3-fluoro-4-(3-(4-(7-(5-(hydroxymethyl)furan-2-yl)-4-morpholino-quinazolin-2-yl)phenyl)ureido)-N,N-dimethyl-benzamide], the IC50 (in test [1]; at mTOR kinase) was 0.05 to 0.2 µM in each case.

`CC(O)c1ccc(-c2cnc3c(N4CCOCC4)nc(-c4ccc(NC(=O)Nc5ccc(C(=O)N(C)C)cc5)c(F)c4)nc3c2)o1` (stereo not drawn) [Example 15, 4-(3-(2-fluoro-4-(7-(5-(1-hydroxyethyl)furan-2-yl)-4-morpholino-pyrido[3,2-d]pyrimidin-2-yl)phenyl)ureido)-N,N-dimethyl-benzamide]: the IC50 (in test [1]; on mTOR kinase) was < 0.05 µM in each case.

As for `Cc1nn(C)c(C)c1-c1ccc2c(N3CCOCC3)nc(-c3ccc(NC(=O)Nc4ccc(C(=O)N(C)C)cc4)cc3F)nc2c1` [Example 269, 4-(3-(3-fluoro-4-(4-morpholino-7-(1,3,5-trimethyl-1H-pyrazol-4-yl)quinazolin-2-yl)phenyl)ureido)-N,N-dimethyl-benzamide], the IC50 (in test [1]; on mTOR kinase) was < 0.05 µM in each case.

On to `Cc1ccc(-c2ccc3c(N4CCOCC4)nc(-c4ccc(NC(=O)Nc5ccc(C(=O)N(C)C)nc5)c(F)c4)nc3c2)o1` [Example 122, 5-(3-(2-fluoro-4-(7-(5-methylfuran-2-yl)-4-morpholino-quinazolin-2-yl)phenyl)ureido)-N,N-dimethylpicolinamide], for which the IC50 (in test [1]; at mTOR kinase) was 0.05 to 0.2 µM each time.

As for `CC1CN(c2nc(-c3ccc(NC(=O)Nc4ccc(C(=O)N(C)C)cc4)cc3)nc3cc(-c4cnn(C)c4)cnc23)CCO1` (stereo not drawn) [Example 148, N,N-dimethyl-4-(3-(4-(7-(1-methyl-1H-pyrazol-4-yl)-4-(2-methylmorpholino)pyrido[3,2-d]pyrimidin-2-yl)phenyl)ureido)-benzamide], the IC50 (in test [1]; at mTOR kinase) was < 0.05 µM each time.

`CN(C)C(=O)c1ccc(NC(=O)Nc2ccc(-c3nc(N4CCOCC4)c4cc(F)c(-c5cnn(C)c5)cc4n3)cc2F)cc1` [Example 108, 4-(3-(2-fluoro-4-(6-fluoro-7-(1-methyl-1H-pyrazol-4-yl)-4-morpholino-quinazolin-2-yl)phenyl)ureidodimethyl-benzamide)-N,N-dimethyl-benzamide]: the IC50 in test [1] is 0.05 to 0.2 µM; on mTOR kinase, < 0.05 µM.

On to `CN(C)C(=O)c1ccc(NC(=O)Nc2ccc(-c3nc(N4CCOCC4)c4ccc(-c5cnc(N)nc5)cc4n3)cc2F)cc1` [Example 110, 4-(3-(4-(7-(2-aminopyrimidin-5-yl)-4-morpholino-quinazolin-2-yl)-2-fluorophenyl)ureido)-N,N-dimethyl-benzamide], for which the values for the IC50 (in test [1]; on mTOR kinase) were 0.201 to 10 µM and < 0.05 µM, respectively.

Take `COc1ncccc1-c1ccc2c(N3CCOCC3)nc(-c3ccc(NC(=O)Nc4ccc(C(=O)N(C)C)cc4)cc3F)nc2c1` [Example 270, 4-(3-(3-fluoro-4-(7-(2-methoxypyridin-3-yl)-4-morpholino-quinazolin-2-yl)phenyl)ureido)-N,N-dimethyl-benzamide]: the IC50 (in test [1]; at mTOR kinase) was 0.05 to 0.2 µM each time.

Take `CN(C)C(=O)c1ccc(NC(=O)Nc2ccc(-c3nc(N4CCOCC4)c4ccc(-c5cccc(N(C)C)c5)cc4n3)cc2)cc1` [Example 50, 4-(3-{4-[7-(3-dimethylamino-phenyl)-4-morpholin-4-yl-quinazolin-2-yl]-phenyl}-ureido)-N,N-dimethyl-benzamide]: the IC50 was < 0.05 µM in test [1] and 0.05 to 0.2 µM at mTOR kinase.

In the case of `CN(C)C(=O)c1ccc(NC(=O)Nc2ccc(-c3nc(N4CCOCC4)c4ccc(CN5CCC(O)CC5)cc4n3)cc2)cc1` [Example 284, 4-(3-(4-(7-((4-hydroxypiperidin-1-yl)methyl)-4-morpholino-quinazolin-2-yl)phenyl)ureido)-N,N-dimethyl-benzamide], the IC50 in test [1] lay in the range of 0.201 to 10 µM; at mTOR kinase, 0.05 to 0.2 µM.

Turning to `COc1ncccc1-c1ccc2c(N3CCOCC3)nc(-c3ccc(NC(=O)Nc4ccc(C(=O)N(C)C)cc4)cc3)nc2c1` [Example 163, 4-(3-(4-(7-(2-methoxypyridin-3-yl)-4-morpholino-quinazolin-2-yl)phenyl)ureido)-N,N-dimethyl-benzamide], the IC50 (in test [1]; at mTOR kinase) was < 0.05 µM each time.

Regarding `Cc1ccc(-c2ccc3c(N4CCOCC4)nc(-c4ccc(NC(=O)Nc5ccc(C(=O)N(C)C)cc5F)cc4)nc3c2)o1` [Example 136, 3-fluoro-N,N-dimethyl-4-(3-(4-(7-(5-methylfuran-2-yl)-4-morpholino-quinazolin-2-yl)phenyl)ureido)-benzamide], the IC50 (in test [1]; at mTOR kinase) was 0.201 to 10 µM each time.

For the compound `CN(C)C(=O)c1ccc(NC(=O)Nc2ccc(-c3nc(N4CCOCC4)c4cc(F)c(-c5cncnc5)cc4n3)cn2)cc1` [Example 176, 4-(3-(5-(6-fluoro-4-morpholino-7-(pyrimidin-5-yl)quinazolin-2-yl)pyridin-2-yl)ureido)-N,N-dimethyl-benzamide], the IC50 in test [1] is < 0.05 µM; on mTOR kinase, 0.05 to 0.2 µM.
